Each structure is given as a SMILES string.

Consider one compound from US9167822B2, “Antifungal compositions” (DSM IP ASSETS B.V., priority 2012, dated 2015).

The assay relates to Botrytis cinerea. The assay is described as follows: In vitro antifungal activity, 96-well microtiter plates. Format: cell-based. As to conditions: 25° C., day 3, 1.25 ppm natamycin, 6.25 ppm isopyrazam or both. The method, then: Subsequently, 100 μl of a Botrytis cinerea suspension prepared in PCB medium was used to inoculated each well with 2.5×10^3 spores/ml. […] After incubation of the microtiter plates at 25° C., the in vitro antifungal activity (%) of the individual active ingredients was assessed by calculating the reduction in mould growth observed in the presence of the active ingredient in comparison to the mould growth observed in the absence of the active ingredient. The expected antifungal activity (E in %) of the active ingredient combination was calculated according to the Colby equation (Colby, 1967): […]

For the compound `C[C@@H]1C/C=C/C=C/C=C/C=C/[C@H](O[C@@H]2O[C@H](C)[C@@H](O)[C@H](N)[C@@H]2O)C[C@@H]2O[C@](O)(C[C@@H](O)C[C@H]3O[C@@H]3/C=C/C(=O)O1)C[C@H](O)[C@H]2C(=O)O` [Natamycin, natamycin], the “Observed antifungal activity O (%)” value was 0%.
